One experiment deals with EGFRL858R + T790M (Homo sapiens, UniProt P00533, L858R/T790M). Briefly: In vitro enzymatic activity assay (Z'-LYTE), EGFR L858R + T790M. The format is biochemical. The following applies: Z'-LYTE FRET peptide assay; read-out: EGFRL858R + T790M kinase activity (IC50). From the text:
(§1) In vitro enzymatic activity assay: using Z′-LYTE™ technology (detect fluorescence, coupled-enzyme format, based on the differential sensitivity of phosphorylated and non-phosphorylated peptides to proteolytic cleavage), based on FRET, using Z′ LYTE™ FRET peptide substrate, detect the activity of compounds against enzymatic. […] After one hour, site specific protease which can recognize and cleaves non-phosphorylated FRET-peptide. After another hour, using an excitation wavelength of 400 nm excites, then detect the […] at 445 nm and 520 nm.

A further experiment concerns the target T1, EGFR T790M kinase (Homo sapiens, UniProt P00533, T790M).
T1 construct: purchased invitrogen PV4803
Briefly: In vitro enzymatic activity assay (Z'-LYTE), EGFR T790M. The format is biochemical. The following applies: Z'-LYTE FRET peptide assay; read-out: EGFRT790M kinase activity (IC50).
Source text: as §1

Experiment [1] has as its system A431 (Human epidermal carcinoma, EGFR high expression). Nature of the experiment: Cell proliferation by MTT, A431. The note with it: A-431, read-out: A431 50% inhibitory concentration (IC50), 72 h. The experiment is classed as cell-based.
A further experiment has as its target EGFRWT (Homo sapiens, UniProt P00533). Nature of the experiment: In vitro enzymatic activity assay (Z'-LYTE), wild type EGFR. The format is biochemical. The note with it: Z'-LYTE FRET peptide assay; read-out: EGFRWT kinase activity (IC50).
Source text: as §1

In another experiment the target is EGFRL858R (Homo sapiens, UniProt P00533, L858R). Briefly: In vitro enzymatic activity assay (Z'-LYTE), EGFR L858R. The format is biochemical. The note with it: Z'-LYTE FRET peptide assay; read-out: EGFRL858R kinase activity (IC50).
Chain of EGFRL858R (P00533 25-1210 L858R): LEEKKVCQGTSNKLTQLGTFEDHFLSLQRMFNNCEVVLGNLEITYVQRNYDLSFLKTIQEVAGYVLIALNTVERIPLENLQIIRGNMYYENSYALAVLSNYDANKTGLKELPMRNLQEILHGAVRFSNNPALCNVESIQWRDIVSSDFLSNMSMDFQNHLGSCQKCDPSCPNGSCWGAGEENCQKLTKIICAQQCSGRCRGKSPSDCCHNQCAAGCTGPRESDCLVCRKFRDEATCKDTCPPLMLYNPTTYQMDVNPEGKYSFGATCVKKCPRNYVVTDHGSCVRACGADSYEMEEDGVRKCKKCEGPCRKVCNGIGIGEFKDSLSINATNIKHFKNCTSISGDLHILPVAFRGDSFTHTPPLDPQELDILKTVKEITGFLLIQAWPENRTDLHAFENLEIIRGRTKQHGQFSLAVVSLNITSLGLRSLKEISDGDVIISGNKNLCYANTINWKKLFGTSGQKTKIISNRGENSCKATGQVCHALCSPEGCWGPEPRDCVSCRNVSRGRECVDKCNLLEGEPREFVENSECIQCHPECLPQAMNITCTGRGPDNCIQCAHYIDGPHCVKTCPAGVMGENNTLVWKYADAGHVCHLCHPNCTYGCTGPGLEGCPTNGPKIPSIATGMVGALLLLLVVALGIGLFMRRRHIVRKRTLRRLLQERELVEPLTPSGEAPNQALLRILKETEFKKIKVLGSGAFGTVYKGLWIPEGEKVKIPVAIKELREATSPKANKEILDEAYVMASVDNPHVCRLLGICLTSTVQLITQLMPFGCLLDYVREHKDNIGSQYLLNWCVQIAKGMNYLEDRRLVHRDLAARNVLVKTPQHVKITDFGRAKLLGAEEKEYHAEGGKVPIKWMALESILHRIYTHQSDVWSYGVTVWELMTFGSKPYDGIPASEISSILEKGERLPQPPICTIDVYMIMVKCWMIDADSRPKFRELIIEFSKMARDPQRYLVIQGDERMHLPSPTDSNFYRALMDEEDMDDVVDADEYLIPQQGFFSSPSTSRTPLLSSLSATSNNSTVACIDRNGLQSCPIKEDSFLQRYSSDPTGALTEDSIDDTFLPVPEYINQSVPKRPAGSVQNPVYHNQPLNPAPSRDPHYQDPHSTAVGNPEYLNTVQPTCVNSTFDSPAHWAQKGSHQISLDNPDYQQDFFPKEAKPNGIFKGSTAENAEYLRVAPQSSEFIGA
Source text: as §1

In a further experiment the target is EGFRL861Q (Homo sapiens, UniProt P00533, L861Q). Nature of the experiment: In vitro enzymatic activity assay (Z'-LYTE), EGFR L861Q. The note with it: Z'-LYTE FRET peptide assay; read-out: EGFRL861Q kinase activity (IC50). The experiment is classed as biochemical.
Chain of EGFRL861Q (P00533 25-1210 L861Q): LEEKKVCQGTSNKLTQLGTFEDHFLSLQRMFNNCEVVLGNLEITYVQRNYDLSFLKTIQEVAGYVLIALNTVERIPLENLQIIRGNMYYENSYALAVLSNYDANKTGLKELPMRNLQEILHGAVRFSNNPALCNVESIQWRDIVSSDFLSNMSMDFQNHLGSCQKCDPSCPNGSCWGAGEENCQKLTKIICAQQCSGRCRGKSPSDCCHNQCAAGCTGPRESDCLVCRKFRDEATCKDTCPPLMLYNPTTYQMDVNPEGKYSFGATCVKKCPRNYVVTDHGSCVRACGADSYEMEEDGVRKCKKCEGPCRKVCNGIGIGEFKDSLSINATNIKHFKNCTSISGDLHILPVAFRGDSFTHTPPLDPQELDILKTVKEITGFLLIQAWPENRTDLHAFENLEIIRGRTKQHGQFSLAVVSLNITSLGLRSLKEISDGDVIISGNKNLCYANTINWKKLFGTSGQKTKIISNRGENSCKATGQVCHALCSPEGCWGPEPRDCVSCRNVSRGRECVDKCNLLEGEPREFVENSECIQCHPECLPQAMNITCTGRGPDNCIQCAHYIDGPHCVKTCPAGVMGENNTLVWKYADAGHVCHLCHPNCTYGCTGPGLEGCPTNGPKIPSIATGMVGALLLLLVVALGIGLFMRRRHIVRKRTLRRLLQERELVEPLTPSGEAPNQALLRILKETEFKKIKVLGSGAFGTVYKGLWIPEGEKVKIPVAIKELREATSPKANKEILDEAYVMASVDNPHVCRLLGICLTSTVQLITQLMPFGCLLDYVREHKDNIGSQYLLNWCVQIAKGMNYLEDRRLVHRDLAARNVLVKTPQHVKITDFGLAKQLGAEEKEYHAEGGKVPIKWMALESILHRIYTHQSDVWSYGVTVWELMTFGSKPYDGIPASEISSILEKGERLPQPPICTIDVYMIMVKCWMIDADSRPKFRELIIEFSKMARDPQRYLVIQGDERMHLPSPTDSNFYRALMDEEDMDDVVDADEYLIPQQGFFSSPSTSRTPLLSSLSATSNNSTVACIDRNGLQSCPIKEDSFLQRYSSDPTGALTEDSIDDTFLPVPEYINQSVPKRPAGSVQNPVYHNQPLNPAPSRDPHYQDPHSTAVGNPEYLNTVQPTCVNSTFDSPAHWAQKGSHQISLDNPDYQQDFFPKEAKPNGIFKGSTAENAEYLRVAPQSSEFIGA
Source text: as §1

For experiment [2], the system named is NCI-H820 (lung cancer cells). Briefly: Cell proliferation by MTT, NCI-H820. The format is cell-based. The note with it: NCI-H820, read-out: NCI-H820 50% inhibitory concentration (IC50), 72 h.
Experiment [3] concerns HCC827 (lung cancer cells, EGFR E746-A750 deletion). Briefly: Cell proliferation by MTT, HCC827. The format is cell-based. The note with it: Homo sapiens, HCC827, read-out: HCC827 50% inhibitory concentration (IC50), 72 h.
Experiment [4] has as its system H1975 (lung cancer cells, EGFR L858R&T790M). Nature of the experiment: Cell proliferation by MTT, H1975. The note with it: Homo sapiens, NCI-H1975, read-out: H1975 50% inhibitory concentration (IC50), 72 h. The format is cell-based.

Molecules are shown by their SMILES.

Chain of EGFRL858R + T790M (P00533 25-1210 T790M/L858R): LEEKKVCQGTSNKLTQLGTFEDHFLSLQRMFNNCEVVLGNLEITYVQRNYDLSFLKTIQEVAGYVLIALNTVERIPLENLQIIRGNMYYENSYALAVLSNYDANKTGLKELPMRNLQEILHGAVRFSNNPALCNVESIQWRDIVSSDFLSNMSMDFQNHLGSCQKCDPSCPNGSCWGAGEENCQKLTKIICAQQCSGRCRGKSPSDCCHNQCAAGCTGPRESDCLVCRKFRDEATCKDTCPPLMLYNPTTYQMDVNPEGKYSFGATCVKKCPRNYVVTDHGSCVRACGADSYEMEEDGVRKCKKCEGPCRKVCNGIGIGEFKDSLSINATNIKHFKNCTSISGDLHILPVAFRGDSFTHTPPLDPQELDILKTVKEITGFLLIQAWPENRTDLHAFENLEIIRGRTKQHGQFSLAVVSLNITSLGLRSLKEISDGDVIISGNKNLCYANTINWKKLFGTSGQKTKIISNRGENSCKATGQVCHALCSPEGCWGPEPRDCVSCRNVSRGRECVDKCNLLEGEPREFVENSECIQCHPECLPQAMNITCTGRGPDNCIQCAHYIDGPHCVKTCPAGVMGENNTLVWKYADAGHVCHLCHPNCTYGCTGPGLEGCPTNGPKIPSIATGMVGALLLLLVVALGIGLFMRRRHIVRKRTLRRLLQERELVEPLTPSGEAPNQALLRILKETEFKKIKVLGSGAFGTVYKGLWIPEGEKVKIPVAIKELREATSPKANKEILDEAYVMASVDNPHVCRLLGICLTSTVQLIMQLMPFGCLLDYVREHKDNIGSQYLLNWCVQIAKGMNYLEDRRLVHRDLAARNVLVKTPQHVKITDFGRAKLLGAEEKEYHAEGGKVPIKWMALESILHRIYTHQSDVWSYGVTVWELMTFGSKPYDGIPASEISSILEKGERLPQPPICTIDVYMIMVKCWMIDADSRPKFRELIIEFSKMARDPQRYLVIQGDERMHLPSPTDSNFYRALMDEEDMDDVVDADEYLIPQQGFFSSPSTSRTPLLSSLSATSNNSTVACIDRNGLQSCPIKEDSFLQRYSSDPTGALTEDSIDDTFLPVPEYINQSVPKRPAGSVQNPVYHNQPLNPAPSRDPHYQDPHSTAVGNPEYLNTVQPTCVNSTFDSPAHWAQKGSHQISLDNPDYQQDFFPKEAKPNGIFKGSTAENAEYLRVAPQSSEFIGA
T1 sequence (P00533 25-1210 T790M): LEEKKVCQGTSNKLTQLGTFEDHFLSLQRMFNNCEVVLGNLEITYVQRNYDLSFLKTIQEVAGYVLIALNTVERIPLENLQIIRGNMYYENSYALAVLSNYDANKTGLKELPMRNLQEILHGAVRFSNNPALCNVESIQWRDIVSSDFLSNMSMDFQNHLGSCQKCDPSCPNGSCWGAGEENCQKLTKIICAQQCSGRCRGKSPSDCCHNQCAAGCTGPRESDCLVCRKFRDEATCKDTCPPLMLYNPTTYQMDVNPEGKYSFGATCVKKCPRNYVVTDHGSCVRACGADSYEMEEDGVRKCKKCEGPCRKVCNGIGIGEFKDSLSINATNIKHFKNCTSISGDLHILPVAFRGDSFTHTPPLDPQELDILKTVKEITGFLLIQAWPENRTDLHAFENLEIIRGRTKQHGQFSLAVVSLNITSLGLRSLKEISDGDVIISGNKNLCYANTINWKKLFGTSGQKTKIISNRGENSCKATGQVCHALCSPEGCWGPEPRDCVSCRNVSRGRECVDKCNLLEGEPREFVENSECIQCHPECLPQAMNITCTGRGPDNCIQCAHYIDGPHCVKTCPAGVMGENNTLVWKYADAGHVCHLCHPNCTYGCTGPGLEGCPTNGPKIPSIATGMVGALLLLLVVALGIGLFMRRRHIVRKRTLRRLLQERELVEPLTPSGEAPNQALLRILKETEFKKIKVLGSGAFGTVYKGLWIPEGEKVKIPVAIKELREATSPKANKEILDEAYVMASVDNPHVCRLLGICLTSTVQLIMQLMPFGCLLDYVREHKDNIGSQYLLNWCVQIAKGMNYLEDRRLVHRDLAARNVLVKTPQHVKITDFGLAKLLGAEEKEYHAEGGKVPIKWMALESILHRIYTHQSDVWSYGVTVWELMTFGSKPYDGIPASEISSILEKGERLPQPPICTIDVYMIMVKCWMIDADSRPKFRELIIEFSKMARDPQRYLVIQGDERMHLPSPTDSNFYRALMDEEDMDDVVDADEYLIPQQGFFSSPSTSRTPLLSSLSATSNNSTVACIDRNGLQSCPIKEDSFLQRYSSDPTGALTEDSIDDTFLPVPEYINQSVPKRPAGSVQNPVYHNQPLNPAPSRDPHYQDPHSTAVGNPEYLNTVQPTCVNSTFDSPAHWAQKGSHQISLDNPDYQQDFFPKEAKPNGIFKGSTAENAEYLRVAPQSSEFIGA

As for `C=CC(=O)Nc1cccc(N2C(=O)N(C)Cc3cnc(Nc4ccc(N5CCSCC5)cc4OC)nc32)c1` [C-EGF09, N-(3-(7-(2-methoxy-4-thiomorpholinophenylamino)-3-methyl-2-oxo-3,4-dihydropyrimido[4,5-d]pyrimidin-1(2H)-yl)phenyl)acrylamide], the IC50 on EGFRL858R + T790M is 10 to 100 nM; on EGFR T790M kinase, 10 to 100 nM; in [1], 10700 nM; at EGFRWT, 10 to 100 nM; on EGFRL858R, 10 to 100 nM; at EGFRL861Q, no more than 10 nM. The IC50 in experiment [2] is greater than 100000 nM; in [3], 212 nM; in experiment [4], 379 nM.

For the molecule `C=CC(=O)Nc1cccc(N2C(=O)N(C)Cc3cnc(Nc4ccc(N5CCCC5)cc4OC)nc32)c1` [C-EGF12, N-(3-(7-(2-methoxy-4-(pyrrolidin-1-yl)phenylamino)-3-methyl-2-oxo-3,4-dihydropyrimido[4,5-d]pyrimidin-1(2H)-yl)phenyl)acrylamide], the IC50 was 10 to 100 nM at EGFRL858R + T790M; 100 to 1000 nM at EGFR T790M kinase; 8160 nM in experiment [1]; 10 to 100 nM on EGFRWT; 10 to 100 nM at EGFRL858R; no more than 10 nM on EGFRL861Q. For the same molecule, the values for the IC50 in experiment [2], in experiment [3] and in experiment [4] were 35600 nM, 409 nM and 1530 nM, respectively.

Turning to `C=CC(=O)Nc1cccc(N2C(=O)N(C)Cc3cnc(Nc4ccc(N5CCN(C)CC5)cc4)nc32)c1` [x001, N-(3-(3-methyl-7-(4-(4-methylpiperazin-1-yl)phenylamino)-2-oxo-3,4-dihydropyrimido[4,5-d]pyrimidin-1(2H)-yl)phenyl)acrylamide], the IC50 at EGFRL858R + T790M was no more than 10 nM; at EGFR T790M kinase, no more than 10 nM; in [1], 3970 nM; on EGFRWT it was no more than 10 nM; on EGFRL858R, no more than 10 nM; on EGFRL861Q, no more than 10 nM. The IC50 in experiment [2] was greater than 100000 nM; in experiment [3] it was 29 nM; in [4], 115 nM.

`C=CC(=O)Nc1cccc(N2C(=O)N(C)Cc3cnc(Nc4ccc(N5CCCCC5)cc4OC)nc32)c1` [C-EGF11, N-(3-(7-(2-methoxy-4-(piperidin-1-yl)phenylamino)-3-methyl-2-oxo-3,4-dihydropyrimido[4,5-d]pyrimidin-1(2H)-yl)phenyl)acrylamide]: the IC50 on EGFRL858R + T790M was 10 to 100 nM; at EGFR T790M kinase, 100 to 1000 nM; in experiment [1], 17700 nM; on EGFRWT it was 10 to 100 nM; on EGFRL858R, 10 to 100 nM; at EGFRL861Q, no more than 10 nM. Further, the IC50 in [2] is greater than 100000 nM; in experiment [3] it was 310 nM; in experiment [4], 2560 nM.

`C=CC(=O)Nc1cccc(N2C(=O)N(C)Cc3cnc(Nc4ccc(OCCN5CCOCC5)cc4OC)nc32)c1` [Compound X008, N-(3-(7-(2-methoxy-4-(2-morpholinoethoxy)phenylamino)-3-methyl-2-oxo-3,4-dihydropyrimido[4,5-d]pyrimidin-1(2H)-yl)phenyl)acrylamide]: the IC50 was no more than 10 nM on EGFRL858R + T790M; 10 to 100 nM on EGFR T790M kinase; 29900 nM in experiment [1]; no more than 10 nM on EGFRWT; no more than 10 nM at EGFRL858R; no more than 10 nM at EGFRL861Q. Also, the IC50 in [2] was greater than 100000 nM; in [3], 179 nM; in experiment [4] it was 1100 nM.

In the case of `C=CC(=O)Nc1cccc(N2C(=O)N(C)Cc3cnc(Nc4ccc(N5CCN(C)CC5)cc4F)nc32)c1` [C-EGF18, N-(3-(7-(2-fluoro-4-(4-methylpiperazin-1-yl)phenylamino)-3-methyl-2-oxo-3,4-dihydropyrimido[4,5-d]pyrimidin-1(2H)-yl)phenyl)acrylamide], the IC50 at EGFRL858R + T790M was 1000 to 10000 nM; at EGFR T790M kinase, no less than 10000 nM; in [1], greater than 100000 nM; at EGFRWT, 1000 to 10000 nM; at EGFRL858R, no less than 10000 nM; at EGFRL861Q, no less than 1000 nM. The IC50 was 4850 nM in experiment [2], greater than 100000 nM in experiment [3] and greater than 100000 nM in experiment [4].

In the case of `C=CC(=O)Nc1cccc(N2C(=O)N(C(C)C)Cc3cnc(Nc4ccc(N5CCN(C)CC5)cc4OC)nc32)c1` [C-EGF24, N-(3-(3-isopropyl-7-(2-methoxy-4-(4-methylpiperazin-1-yl)phenylamino)-2-oxo-3,4-dihydropyrimido[4,5-d]pyrimidin-1(2H)-yl)phenyl)acrylamide], the IC50 is no more than 10 nM at EGFRL858R + T790M; no more than 10 nM on EGFR T790M kinase; 24700 nM in experiment [1]; no more than 10 nM on EGFRWT; no more than 10 nM at EGFRL858R; no more than 10 nM at EGFRL861Q. In addition, the values for the IC50 in [2], in experiment [3] and in experiment [4] were greater than 100000 nM, 0.2 nM and 129 nM, respectively.

With `C=CC(=O)Nc1cccc(N2C(=O)N(C)Cc3cnc(Nc4ccc(N5CCOCC5)cc4OC)nc32)c1` [C-EGF08, N-(3-(7-(2-methoxy-4-morpholinophenylamino)-3-methyl-2-oxo-3,4-dihydropyrimido[4,5-d]pyrimidin-1(2H)-yl)phenyl)acrylamide], the IC50 at EGFRL858R + T790M was 10 to 100 nM; on EGFR T790M kinase, 10 to 100 nM; in experiment [1], 21200 nM; at EGFRWT it was 10 to 100 nM; on EGFRL858R it was 10 to 100 nM; at EGFRL861Q it was 10 to 100 nM. Also, the results for the IC50 in experiment [2], in experiment [3] and in experiment [4] were greater than 100000 nM, 159 nM and 159 nM, respectively.

Take `C=CC(=O)Nc1cccc(N2C(=O)N(C)Cc3cnc(Nc4ccc(N5CCCCC5)cc4)nc32)c1` [Compound X002, N-(3-(3-methyl-2-oxo-7-(4-(piperidin-1-yl)phenylamino)-3,4-dihydropyrimido[4,5-d]pyrimidin-1(2H)-yl)phenyl)acrylamide]: the IC50 on EGFRL858R + T790M is no more than 10 nM; on EGFR T790M kinase, no more than 10 nM; in experiment [1] it was 8030 nM; on EGFRWT, no more than 10 nM; on EGFRL858R, no more than 10 nM; on EGFRL861Q, no more than 10 nM. Further, the IC50 in experiment [2] was greater than 100000 nM; in experiment [3] it was 154 nM; in experiment [4], 420 nM.

`C=CC(=O)Nc1cccc(N2C(=O)N(C)Cc3cnc(Nc4ccc(N5CCOCC5)cc4)nc32)c1` [Compound X007, N-(3-(3-methyl-7-(4-morpholinophenylamino)-2-oxo-3,4-dihydropyrimido[4,5-d]pyrimidin-1(2H)-yl)phenyl)acrylamide]: the IC50 at EGFRL858R + T790M is no more than 10 nM; on EGFR T790M kinase, no more than 10 nM; in experiment [1], 3480 nM; on EGFRWT it was no more than 10 nM; at EGFRL858R it was no more than 10 nM; on EGFRL861Q, no more than 10 nM. The results for the IC50 in experiment [2], in experiment [3] and in experiment [4] were greater than 100000 nM, 256 nM and 696 nM, respectively.

For `C=CC(=O)Nc1cccc(N2C(=O)N(C)Cc3cnc(N4CCN(C)CC4)nc32)c1` [C-EGF19, N-(3-(3-methyl-7-(4-methylpiperazin-1-yl)-2-oxo-3,4-dihydropyrimido[4,5-d]pyrimidin-1(2H)-yl)phenyl)acrylamide], the IC50 on EGFRL858R + T790M was 1000 to 10000 nM; at EGFR T790M kinase, no less than 10000 nM; in [1], greater than 100000 nM; at EGFRWT, no less than 10000 nM; on EGFRL858R it was no less than 10000 nM; on EGFRL861Q, 100 to 1000 nM. Besides, the IC50 is 95700 nM in [2], greater than 100000 nM in experiment [3] and 12100 nM in experiment [4].

Regarding `C=CC(=O)Nc1cccc(N2C(=O)N(C)Cc3cnc(Nc4ccc(N5CCC(N6CCN(C)CC6)CC5)cc4)nc32)c1` [Compound X003, N-(3-(3-methyl-7-(4-(4-(4-methylpiperazin-1-yl)piperidin-1-yl)phenylamino)-2-oxo-3,4-dihydropyrimido[4,5-d]pyrimidin-1(2H)-yl)phenyl)acrylamide], the IC50 on EGFRL858R + T790M is no more than 10 nM; on EGFR T790M kinase, no more than 10 nM; in experiment [1], 3440 nM; on EGFRWT, no more than 10 nM; on EGFRL858R, no more than 10 nM; on EGFRL861Q, no more than 10 nM. In addition, the IC50 is greater than 100000 nM in [2], 125 nM in experiment [3] and 179 nM in [4].

Take `C=CC(=O)Nc1cccc(N2C(=O)N(C)Cc3cnc(Nc4ccc(N5CCN(C)CC5)cc4OC(C)C)nc32)c1` [Compound X006, N-(3-(7-(2-isopropoxy-4-(4-methylpiperazin-1-yl)phenylamino)-3-methyl-2-oxo-3,4-dihydropyrimido[4,5-d]pyrimidin-1(2H)-yl)phenyl)acrylamide]: the IC50 at EGFRL858R + T790M is 10 to 100 nM; at EGFR T790M kinase, 10 to 100 nM; in experiment [1], 62500 nM; at EGFRWT it was no more than 10 nM; on EGFRL858R, 10 to 100 nM; on EGFRL861Q, 10 to 100 nM. In addition, the results for the IC50 in experiment [2], in [3] and in [4] were greater than 100000 nM, 108 nM and 543 nM, respectively.

Source of the values: patent publication US20140296216A1, “PYRIMIDO[4,5-D]PYRIMIDINYL COMPOUNDS, PHARMACEUTICAL COMPOSITIONS AND USES THEREOF” (GUANGZHOU INSTITUTE OF BIOMEDICINE AND HEALTH, CHINESE …, priority 2011, published 2014).
